pIC50: −log10 of the molar value. Structures can show the parent of a compound that is named as a salt.
target: PI3Kδ (p110δ/p85α) (Homo sapiens (Human), UniProt O00329); experiment: PI3Kδ Scintillation Proximity Assay (Assay A3); type: biochemical; conditions: column b, Assay A3 (SPA), 20 μM ATP
Source text: [γ-^33P]ATP (10 mCi/mL) was purchased from Perkin-Elmer (Waltham, Mass.). Lipid kinase substrate, D-myo-Phosphatidylinositol 4,5-bisphosphate (PtdIns(4,5)P2)D (+)-sn-1,2-di-O-octanoylglyceryl, 3-O-phospho linked (PIP2), CAS 204858-53-7, was purchased from Echelon Biosciences (Salt Lake City, Utah). PI3Kδ (p110δ/p85α) was purchased from Millipore (Bedford, Mass.). ATP, MgCl2, DTT, EDTA, MOPS and CHAPS were purchased from Sigma-Aldrich (St. Louis, Mo.). Wheat Germ Agglutinin (WGA) YSi SPA Scintillation Beads was purchased from GE healthcare life sciences (Piscataway, N.J.).
The kinase reaction was conducted in polystyrene 384-well matrix white plate from Thermo Fisher Scientific in a final volume of 25 μL. Inhibitors were first diluted serially in DMSO and added to the plate wells before the addition of other reaction components. The final concentration of DMSO in the assay was 0.5%. The PI3K assays were carried out at room temperature in 20 mM MOPS, pH 6.7, 10 mM MgCl2, 5 mM DTT and CHAPS 0.03%. Reactions were initiated by the addition of ATP, the final reaction mixture consisted of 20 μM PIP2, 20 μM ATP, 0.2 μCi [γ-^33P] ATP, 4 nM PI3Kδ. Reactions were incubated for 210 min and terminated by the addition of 40 μL SPA beads suspended in quench buffer: 150 mM potassium phosphate pH 8.0, 20% glycerol. 25 mM EDTA, 400 μM ATP. The final concentration of SPA beads was 1.0 mg/mL. After the plate sealing, plates were shaken overnight at room temperature and centrifuged at 1800 rpm for 10 minutes, the radioactivity of the product was determined by scintillation counting on Topcount (Perkin-Elmer). IC50 determination was performed by fitting the curve of percent control activity versus the log of the inhibitor concentration using the GraphPad Prism 3.0 software.

Sequence of PI3Kδ (p110δ/p85α) (O00329 whole entry, species assumed): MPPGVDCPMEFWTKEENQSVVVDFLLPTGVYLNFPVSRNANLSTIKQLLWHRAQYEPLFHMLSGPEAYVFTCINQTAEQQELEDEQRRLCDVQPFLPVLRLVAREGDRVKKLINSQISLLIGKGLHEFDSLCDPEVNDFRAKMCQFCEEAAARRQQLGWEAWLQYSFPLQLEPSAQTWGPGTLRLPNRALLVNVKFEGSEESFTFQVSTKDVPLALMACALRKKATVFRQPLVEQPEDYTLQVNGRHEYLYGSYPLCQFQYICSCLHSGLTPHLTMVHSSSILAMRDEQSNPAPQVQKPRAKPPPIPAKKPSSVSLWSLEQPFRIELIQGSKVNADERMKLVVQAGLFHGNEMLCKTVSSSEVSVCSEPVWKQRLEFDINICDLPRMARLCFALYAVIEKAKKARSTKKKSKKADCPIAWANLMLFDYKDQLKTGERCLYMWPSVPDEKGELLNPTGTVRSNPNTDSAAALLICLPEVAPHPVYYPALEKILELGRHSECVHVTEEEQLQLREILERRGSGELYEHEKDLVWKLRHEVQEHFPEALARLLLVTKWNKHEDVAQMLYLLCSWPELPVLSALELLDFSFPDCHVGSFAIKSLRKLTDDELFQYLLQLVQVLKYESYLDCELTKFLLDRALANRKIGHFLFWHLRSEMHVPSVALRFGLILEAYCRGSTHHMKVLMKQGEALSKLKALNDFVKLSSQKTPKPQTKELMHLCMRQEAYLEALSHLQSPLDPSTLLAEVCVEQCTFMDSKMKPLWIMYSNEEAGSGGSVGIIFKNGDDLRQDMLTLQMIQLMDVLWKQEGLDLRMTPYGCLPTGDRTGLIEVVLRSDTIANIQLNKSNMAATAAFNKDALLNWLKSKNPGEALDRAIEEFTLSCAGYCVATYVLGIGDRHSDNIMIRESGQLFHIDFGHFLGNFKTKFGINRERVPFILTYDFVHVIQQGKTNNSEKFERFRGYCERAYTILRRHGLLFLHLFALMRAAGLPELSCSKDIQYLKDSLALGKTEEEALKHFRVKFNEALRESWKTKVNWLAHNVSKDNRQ
Sequence of PI3Kδ (p110δ/p85α) (P27986 whole entry partner, species assumed): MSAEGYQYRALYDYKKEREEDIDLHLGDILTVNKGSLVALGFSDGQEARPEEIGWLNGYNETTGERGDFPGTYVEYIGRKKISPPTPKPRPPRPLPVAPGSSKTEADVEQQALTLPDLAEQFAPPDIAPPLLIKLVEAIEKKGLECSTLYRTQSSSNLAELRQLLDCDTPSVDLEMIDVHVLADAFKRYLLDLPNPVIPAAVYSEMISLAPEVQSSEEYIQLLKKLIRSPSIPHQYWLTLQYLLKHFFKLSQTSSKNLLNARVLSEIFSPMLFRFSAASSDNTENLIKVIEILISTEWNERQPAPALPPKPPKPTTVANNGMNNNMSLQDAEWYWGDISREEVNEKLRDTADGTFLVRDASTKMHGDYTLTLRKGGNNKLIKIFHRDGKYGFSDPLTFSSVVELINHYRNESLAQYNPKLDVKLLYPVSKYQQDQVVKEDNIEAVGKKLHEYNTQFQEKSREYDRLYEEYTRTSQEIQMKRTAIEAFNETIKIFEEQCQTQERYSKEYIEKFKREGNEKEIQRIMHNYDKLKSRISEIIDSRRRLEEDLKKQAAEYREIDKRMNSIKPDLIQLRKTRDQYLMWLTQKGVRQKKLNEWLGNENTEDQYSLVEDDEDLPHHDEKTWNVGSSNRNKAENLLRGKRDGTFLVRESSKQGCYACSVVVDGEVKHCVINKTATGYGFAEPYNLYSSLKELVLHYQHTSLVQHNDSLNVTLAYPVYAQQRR

| SMILES | pIC50 |
| --- | --- |
| Cc1csc2nc(C(C)Nc3ncnc4[nH]ccc34)c(-c3cc(F)cc(F)c3)c(=O)n12 (centres unmarked) [Example 17, 6-(3,5-difluorophenyl)-3-methyl-7-[1-(7H-pyrrolo[2,3-d]pyrimidin-4-ylamino)ethyl]-5H-[1,3]thiazolo[3,2-a]pyrimidin-5-one] | 6.30 to 7.00 |
| Cc1csc2nc(C(C)Nc3nc(F)nc4[nH]cnc34)c(-c3cc(F)cc(F)c3)c(=O)n12 (centres unmarked) [Example 18, 6-(3,5-difluorophenyl)-7-{1-[(2-fluoro-9H-purin-6-yl)amino]ethyl}-3-methyl-5H-[1,3]thiazolo[3,2-a]pyrimidin-5-one] | 6.30 to 7.00 |
| Cc1csc2nc(C(C)Nc3ncnc4[nH]cnc34)c(-c3ccncc3)c(=O)n12 (centres unmarked) [Example 19, 3-methyl-7-[1-(9H-purin-6-ylamino)ethyl]-6-pyridin-4-yl-5H-[1,3]thiazolo[3,2-a]pyrimidin-5-one] | 6.30 to 7.00 |
| Cc1csc2nc(C(C)Nc3ncnc4[nH]cnc34)c(-c3nccs3)c(=O)n12 (centres unmarked) [Example 20, 3-methyl-7-[1-(9H-purin-6-ylamino)ethyl]-6-(1,3-thiazol-2-yl)-5H-[1,3]thiazolo[3,2-a]pyrimidin-5-one trifluoroacetic acid salt] | > 7.30 |
| Cc1csc2nc(C(C)Nc3ncnc4[nH]cnc34)c(-c3cscn3)c(=O)n12 (centres unmarked) [Example 21, 3-methyl-7-[1-(9H-purin-6-ylamino)ethyl]-6-(1,3-thiazol-4-yl)-5H-[1,3]thiazolo[3,2-a]pyrimidin-5-one trifluoroacetic acid salt] | > 7.30 |
| Cc1csc2nc(C(C)Nc3ncnc4[nH]cnc34)c(-c3ccc(F)cc3)c(=O)n12 (centres unmarked) [Example 22, 6-(4-fluorophenyl)-3-methyl-7-[1-(9H-purin-6-ylamino)ethyl]-5H-[1,3]thiazolo[3,2-a]pyrimidin-5-one trifluoroacetic acid salt] | 7.00 to 7.30 |
| CC(Nc1nc(N)nc2[nH]cnc12)c1nc2sccn2c(=O)c1-c1cc(F)cc(F)c1 (centres unmarked) [Example 24, 7-{1-[(2-amino-9H-purin-6-yl)amino]ethyl}-6-(3,5-difluorophenyl)-5H-[1,3]thiazolo[3,2-a]pyrimidin-5-one] | < 6.30 |
| CC(Nc1ncnc2[nH]cnc12)c1nc2sccn2c(=O)c1-c1cc(F)cc(F)c1 (centres unmarked) [Example 25, 6-(3,5-difluorophenyl)-7-[1-(9H-purin-6-ylamino)ethyl]-5H-[1,3]thiazolo[3,2-a]pyrimidin-5-one] | < 6.30 |
| CC(Nc1nc(N)nc2[nH]cnc12)c1nc2sccn2c(=O)c1-c1cccc(F)c1 (centres unmarked) [Example 26, 7-{1-[(2-amino-9H-purin-6-yl)amino]ethyl}-6-(3-fluorophenyl)-5H-[1,3]thiazolo[3,2-a]pyrimidin-5-one] | 6.30 to 7.00 |
| CC(Nc1nc(N)nc2[nH]cnc12)c1nc2sccn2c(=O)c1-c1ccccc1 (centres unmarked) [Example 27, 7-{1-[(2-amino-9H-purin-6-yl)amino]ethyl}-6-phenyl-5H-[1,3]thiazolo[3,2-a]pyrimidin-5-one] | 6.30 to 7.00 |
| CC(Nc1ncnc2[nH]cnc12)c1nc2sccn2c(=O)c1-c1cccc(F)c1 (centres unmarked) [Example 28, 6-(3-fluorophenyl)-7-[1-(9H-purin-6-ylamino)ethyl]-5H-[1,3]thiazolo[3,2-a]pyrimidin-5-one] | < 6.30 |
| CC(Nc1ncnc2[nH]cnc12)c1nc2sccn2c(=O)c1-c1ccccc1 (centres unmarked) [Example 29, 6-phenyl-7-[1-(9H-purin-6-ylamino)ethyl]-5H-[1,3]thiazolo[3,2-a]pyrimidin-5-one] | < 6.30 |
| Cc1ccc(-c2c(C(C)Nc3ncnc4[nH]cnc34)nc3scc(C)n3c2=O)cc1 (centres unmarked) [Example 31, 3-methyl-6-(4-methylphenyl)-7-[1-(9H-purin-6-ylamino)ethyl]-5H-[1,3]thiazolo[3,2-a]pyrimidin-5-one trifluoroacetic acid salt] | 6.30 to 7.00 |
| Cc1csc2nc(C(C)Nc3nc(N)nc4[nH]cnc34)c(-c3cccc(Cl)c3)c(=O)n12 (centres unmarked) [Example 32, 7-{1-[(2-amino-9H-purin-6-yl)amino]ethyl}-6-(3-chlorophenyl)-3-methyl-5H-[1,3]thiazolo[3,2-a]pyrimidin-5-one trifluoroacetic acid salt] | 7.00 to 7.30 |
| Cc1csc2nc(C(C)Nc3nc(N)nc4[nH]cnc34)c(-c3ccccc3F)c(=O)n12 (centres unmarked) [Example 33, 7-{1-[(2-amino-9H-purin-6-yl)amino]ethyl}-6-(2-fluorophenyl)-3-methyl-5H-[1,3]thiazolo[3,2-a]pyrimidin-5-one trifluoroacetic acid salt] | > 7.30 |
| Cc1csc2nc(C(C)Nc3nc(N)nc4[nH]cnc34)c(-c3cccc(F)c3F)c(=O)n12 (centres unmarked) [Example 34, 7-{1-[(2-amino-9H-purin-6-yl)amino]ethyl}-6-(2,3-difluorophenyl)-3-methyl-5H-[1,3]thiazolo[3,2-a]pyrimidin-5-one trifluoroacetic acid salt] | > 7.30 |
| Cc1csc2nc(C(C)Nc3nc(N)nc4[nH]cnc34)c(-c3cc(F)cc(Cl)c3)c(=O)n12 (centres unmarked) [Example 35, 7-{1-[(2-amino-9H-purin-6-yl)amino]ethyl}-6-(3-chloro-5-fluorophenyl)-3-methyl-5H-[1,3]thiazolo[3,2-a]pyrimidin-5-one trifluoroacetic acid salt] | 7.00 to 7.30 |
| Cc1csc2nc(C(C)Nc3ncnc4[nH]cnc34)c(-c3cccc(Cl)c3)c(=O)n12 (centres unmarked) [Example 36, 6-(3-chlorophenyl)-3-methyl-7-[1-(9H-purin-6-ylamino)ethyl]-5H-[1,3]thiazolo[3,2-a]pyrimidin-5-one trifluoroacetic acid salt] | 6.30 to 7.00 |
| Cc1csc2nc(C(C)Nc3ncnc4[nH]cnc34)c(-c3cc(F)cc(Cl)c3)c(=O)n12 (centres unmarked) [Example 37, 6-(3-chloro-5-fluorophenyl)-3-methyl-7-[1-(9H-purin-6-ylamino)ethyl]-5H-[1,3]thiazolo[3,2-a]pyrimidin-5-one trifluoroacetic acid salt] | 6.30 to 7.00 |
| Cc1csc2nc(C(C)Nc3nc(N)nc4[nH]cnc34)c(-c3cncc(F)c3)c(=O)n12 (centres unmarked) [Example 38, 7-{1-[(2-amino-9H-purin-6-yl)amino]ethyl}-6-(5-fluoropyridin-3-yl)-3-methyl-5H-[1,3]thiazolo[3,2-a]pyrimidin-5-one trifluoroacetic acid salt] | 7.00 to 7.30 |
| Cc1csc2nc(C(C)Nc3ncnc4[nH]cnc34)c(-c3ccccc3F)c(=O)n12 (centres unmarked) [Example 40, 6-(2-fluorophenyl)-3-methyl-7-[1-(9H-purin-6-ylamino)ethyl]-5H-[1,3]thiazolo[3,2-a]pyrimidin-5-one trifluoroacetic acid salt] | > 7.30 |
| Cc1csc2nc(C(C)Nc3ncnc4[nH]cnc34)c(-c3cccc(F)c3F)c(=O)n12 (centres unmarked) [Example 41, 6-(2,3-difluorophenyl)-3-methyl-7-[1-(9H-purin-6-ylamino)ethyl]-5H-[1,3]thiazolo[3,2-a]pyrimidin-5-one trifluoroacetic acid salt] | 7.00 to 7.30 |
| Cc1csc2nc(C(C)Nc3ncnc4[nH]cnc34)c(-c3cncc(F)c3)c(=O)n12 (centres unmarked) [Example 42, 6-(5-fluoropyridin-3-yl)-3-methyl-7-[1-(9H-purin-6-ylamino)ethyl]-5H-[1,3]thiazolo[3,2-a]pyrimidin-5-one trifluoroacetic acid salt] | 6.30 to 7.00 |
| Cc1csc2nc(C(C)Nc3ncnc4[nH]cnc34)c(-c3cc(F)ccc3F)c(=O)n12 (centres unmarked) [Example 45, 6-(2,5-difluorophenyl)-3-methyl-7-[1-(9H-purin-6-ylamino)ethyl]-5H-[1,3]thiazolo[3,2-a]pyrimidin-5-one trifluoroacetic acid salt] | > 7.30 |
| Cc1csc2nc([C@H](C)Nc3nc(O)nc4[nH]cnc34)c(-c3cccc(F)c3)c(=O)n12 [Example 47, 6-(3-Fluorophenyl)-7-{(1S)-1-[(2-hydroxy-9H-purin-6-yl)amino]ethyl}-3-methyl-5H-[1,3]thiazolo[3,2-a]pyrimidin-5-one] | 6.30 to 7.00 |
| CC(Nc1ncnc2[nH]cnc12)c1nc2scc(C(F)(F)F)n2c(=O)c1-c1cccc(F)c1 (centres unmarked) [Example 48, 6-(3-Fluorophenyl)-7-[1-(9H-purin-6-ylamino)ethyl]-3-(trifluoromethyl)-5H-[1,3]thiazolo[3,2-a]pyrimidin-5-one] | 7.00 to 7.30 |
| Cc1cccc2nc(C(C)Nc3ncnc4[nH]cnc34)c(-c3ccccc3)c(=O)n12 (centres unmarked) [Example 49, 6-Methyl-3-phenyl-2-[1-(9H-purin-6-ylamino)ethyl]-4H-pyrido[1,2-a]pyrimidin-4-one trifluoroacetic acid salt] | > 7.30 |
| Cc1cccc2nc(C(C)Nc3nc(N)nc4[nH]cnc34)c(-c3ccccc3)c(=O)n12 (centres unmarked) [Example 50, 2-{1-[(2-Amino-9H-purin-6-yl)amino]ethyl}-6-methyl-3-phenyl-4H-pyrido[1,2-a]pyrimidin-4-one trifluoroacetic acid salt] | > 7.30 |
| Cc1cccc(-c2c(C(C)Nc3ncnc4[nH]cnc34)nc3cccc(C)n3c2=O)c1 (centres unmarked) [Example 51, 6-Methyl-3-(3-methylphenyl)-2-[1-(9H-purin-6-ylamino)ethyl]-4H-pyrido[1,2-a]pyrimidin-4-one trifluoroacetic acid salt] | 6.30 to 7.00 |

From patent US9975907B2, “Pyrimidinones as PI3K inhibitors” (Incyte Corporation, priority 2009, dated 2018)
